The results in this text go back to patent US8822449B2, “Substituted aminoindanes and analogs thereof, and the pharmaceutical use thereof” (Sanofi, priority 2008, dated 2014).

This experiment has as its target T1, sodium-proton exchanger of subtype 3 (NHE3) (Homo sapiens, UniProt P48764).
T1 construct: expressed in transfected cells
T1 sequence (P48764 26-834): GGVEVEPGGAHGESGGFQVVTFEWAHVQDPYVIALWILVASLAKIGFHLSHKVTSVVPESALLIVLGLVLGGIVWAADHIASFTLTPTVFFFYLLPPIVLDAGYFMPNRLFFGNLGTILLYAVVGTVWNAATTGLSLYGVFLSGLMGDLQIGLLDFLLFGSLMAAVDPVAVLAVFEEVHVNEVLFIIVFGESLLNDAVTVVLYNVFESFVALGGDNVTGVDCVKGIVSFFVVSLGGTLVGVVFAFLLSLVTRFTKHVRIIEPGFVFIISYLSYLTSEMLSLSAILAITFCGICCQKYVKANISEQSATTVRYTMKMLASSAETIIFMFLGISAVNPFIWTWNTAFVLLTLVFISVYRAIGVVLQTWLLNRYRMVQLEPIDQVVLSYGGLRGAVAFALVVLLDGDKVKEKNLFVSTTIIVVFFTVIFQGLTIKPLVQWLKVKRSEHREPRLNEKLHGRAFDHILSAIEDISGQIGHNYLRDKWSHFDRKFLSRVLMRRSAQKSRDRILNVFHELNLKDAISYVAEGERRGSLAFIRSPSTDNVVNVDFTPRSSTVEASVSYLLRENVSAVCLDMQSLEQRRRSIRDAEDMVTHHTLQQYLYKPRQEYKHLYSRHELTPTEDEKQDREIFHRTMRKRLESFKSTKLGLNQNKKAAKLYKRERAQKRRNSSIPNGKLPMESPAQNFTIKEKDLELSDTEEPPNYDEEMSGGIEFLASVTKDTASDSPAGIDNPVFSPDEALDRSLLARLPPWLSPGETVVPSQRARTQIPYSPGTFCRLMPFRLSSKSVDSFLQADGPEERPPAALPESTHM
Kind of experiment: Recovery of intracellular pH (pHi) after acidification in LAP1 cells stably expressing NHE3 (BCECF fluorescence, FLIPR). The experiment is classed as cell-based. The note with it: LAP1 cells stably expressing NHE3; pH recovery after acidification; range 1 is % inhibition at 10 μM; read-out: Activity range (inhibitory effect on NHE3).

Consider `N[C@@H]1CCCN([C@H]2CCc3ccccc3[C@@H]2Oc2ccc(Cl)nc2)C1` (racemic) [Example 81, (R)-1-[rac-trans-(1,2)-1-(6-chloropyridin-3-yloxy)-1,2,3,4-tetrahydronaphthalen-2-yl]piperidin-3-ylamine], for which the inhibition at 10 µM lay in the range of 20 to 50%.

In the case of `Cc1nnc(C)n1-c1ccc(O[C@H]2c3cc(Cl)cc(Cl)c3C[C@@H]2N2CC[C@@H](O)C2)c(F)c1F` [Example 126, (R)-1-{trans-(1S,2S)-4,6-dichloro-1-[4-(3,5-dimethyl-[1,2,4]triazol-4-yl)-2,3-difluorophenoxy]indan-2-yl}pyrrolidin-3-ol], the IC50 was < 1000 nM.

In the case of `CC(=O)Nc1cccc(O[C@H]2c3cccc(Cl)c3C[C@@H]2N2CCCC2)c1` (racemic) [Example 649, N-[3-(rac-trans-(1,2)-4-chloro-2-pyrrolidin-1-ylindan-1-yloxy)phenyl]acetamide], the inhibition at 10 µM fell in the range of 20 to 50%. The same measure, in the same setting: the result for `COc1ccc(C)cc1O[C@H]1c2ccccc2CC[C@@H]1N1CCC[C@@H](N)C1` (racemic) [Example 46, (R)-1-[rac-trans-(1,2)-1-(2-methoxy-5-methylphenoxy)-1,2,3,4-tetrahydronaphthalen-2-yl]piperidin-3-ylamine] reads 20 to 50%; that for `Cc1ccc(O[C@H]2c3ccccc3CC[C@@H]2N2CCC[C@H](N)C2)c(Cl)c1` (racemic) [Example 152, (S)-1-[rac-trans-(1,2)-1-(2-chloro-4-methylphenoxy)-1,2,3,4-tetrahydronaphthalen-2-yl]piperidin-3-ylamine], 20 to 50%. `CC1(C)NC(=O)N(c2ccc(Cl)c(O[C@H]3c4cc(Cl)cc(Cl)c4C[C@@H]3N3CC[C@@H](O)C3)c2)C1=O` [Example 431, 3-{4-chloro-3-[(1S,2S)-4,6-dichloro-2-((R)-3-hydroxypyrrolidin-1-yl)indan-1-yloxy]phenyl}-5,5-dimethylimidazolidine-2,4-dione]: the IC50 was in the range of 1000 to 10000 nM.

As for `CS(=O)(=O)c1ccc(O[C@H]2c3cc(Cl)cc(Cl)c3C[C@@H]2N2CCCN(CCF)CC2)cc1` [Example 303, 1-[trans-(1S,2S)-4,6-dichloro-1-(4-methanesulfonylphenoxy)indan-2-yl]-4-(2-fluoroethyl)-[1,4]diazepane], the IC50 was < 1000 nM. For the compound `CC(=O)Nc1cccc(O[C@H]2c3ccccc3C[C@@H]2N2CCC[C@@H](N(C)C)C2)c1` [Example 692, N-{3-[trans-(1S,2S)-2-((R)-3-dimethylaminopiperidin-1-yl)indan-1-yloxy]phenyl}acetamide], the IC50 is < 1000 nM. On the same count and under the same terms, the result for `N[C@@H]1CCCN([C@@H]2Cc3ccccc3[C@H]2Oc2ccc(-n3cncn3)cc2)C1` (racemic) [Example 62, (R)-1-[rac-trans-(1,2)-1-(4-[1,2,4]triazol-1-ylphenoxy)indan-2-yl]piperidin-3-ylamine] reads < 1000 nM. Regarding `CCC(=O)c1cc(F)c(O[C@H]2c3ccccc3CC[C@@H]2N2CCC[C@H](N)C2)c(F)c1` (racemic) [Example 327, 1-{4-[rac-trans-(1,2)-2-((S)-3-aminopiperidin-1-yl)-1,2,3,4-tetrahydronaphthalen-1-yloxy]-3,5-difluorophenyl}propan-1-one], the inhibition at 10 µM lay in the range of 20 to 50%. As for `NCC1CCN([C@@H]2Cc3ccccc3[C@H]2Oc2ccc(S(N)(=O)=O)c(Cl)c2Cl)CC1` (racemic) [Example 545, 4-[rac-trans-(1,2)-2-(4-aminomethylpiperidin-1-yl)indan-1-yloxy]-2,3-dichlorobenzenesulfonamide], the IC50 is 1000 to 10000 nM.

With `O=C1CCCN1c1cccc(O[C@H]2c3cc(Cl)cc(Cl)c3C[C@@H]2N2CC[C@@H](O)C2)c1` [Example 315, 1-{3-[(1S,2S)-4,6-dichloro-2-((R)-3-hydroxypyrrolidin-1-yl)indan-1-yloxy]phenyl}pyrrolidin-2-one], the IC50 was 1000 to 10000 nM. The same measure, in the same setting: the result for `Cc1nc2cc(O[C@@H]3c4ccccc4C[C@H]3N3CCC[C@@H](N)C3)ccc2s1` (racemic) [Example 47, (R)-1-[rac-trans-(1,2)-1-(2-methylbenzothiazol-5-yloxy)indan-2-yl]piperidin-3-ylamine] reads < 1000 nM. In the case of `Cc1cc(C)c2cccnc2c1O[C@H]1c2ccccc2CC[C@@H]1N1CCOCC1` (racemic) [Example 573, 5,7-dimethyl-8-(rac-trans-(1,2)-2-morpholin-4-yl-1,2,3,4-tetrahydronaphthalen-1-yloxy)quinoline], the inhibition at 10 µM fell in the range of 20 to 50%. With `NS(=O)(=O)c1ccc(OC2c3ccccc3CC2N2CC[C@@H](O)C2)cc1` (mixture of isomers) [Example 527, 4-[rac-trans-(1,2)-2-((R)-3-Hydroxypyrrolidin-1-yl)indan-1-yloxy]benzenesulfonamide], the IC50 lay in the range of 1000 to 10000 nM. On the same count and under the same terms, the result for `Cn1ccn(-c2ccc(F)c(O[C@H]3c4cc(Cl)cc(F)c4C[C@@H]3N3CC[C@@H](O)C3)c2)c1=O` [Example 318, 1-{3-[(1S,2S)-6-chloro-4-fluoro-2-((R)-3-hydroxypyrrolidin-1-yl)indan-1-yloxy]-4-fluorophenyl}-3-methyl-1,3-dihydroimidazol-2-one] reads < 1000 nM; that for `CS(=O)(=O)c1ccc(O[C@H]2c3cc(Cl)cc(Cl)c3C[C@@H]2N2CC[C@@H](F)C2)cc1` [Example 100, (R)-1-[trans-(1S,2S)-4,6-dichloro-1-(4-methanesulfonylphenoxy)indan-2-yl]-3-fluoropyrrolidine], < 1000 nM; that for `CS(=O)(=O)c1ccc(O[C@H]2c3cc(Cl)cc(Cl)c3C[C@@H]2N2C[C@H]3CNC[C@H]3C2)cc1` [Example 3, 2-[trans-(1S,2S)-4,6-dichloro-1-(4-methanesulfonylphenoxy)indan-2-yl]octahydropyrrolo[3,4-c]pyrrole], < 1000 nM. For the compound `CC1(C)OC(=O)N(c2ccc(Cl)c(O[C@H]3c4cc(Cl)cc(F)c4C[C@@H]3N3CC[C@@H](O)C3)c2)C1=O` [Example 437, 3-{4-chloro-3-[(1S,2S)-6-chloro-4-fluoro-2-((R)-3-hydroxypyrrolidin-1-yl)indan-1-yloxy]phenyl}-5,5-dimethyloxazolidine-2,4-dione], the IC50 lay in the range of 1000 to 10000 nM. The same measure, in the same setting: the result for `N[C@@H]1CCCN([C@H]2CCc3ccccc3[C@@H]2Oc2ccc3ccncc3c2)C1` (racemic) [Example 84, (R)-1-[rac-trans-(1,2)-1-(isoquinolin-7-yloxy)-1,2,3,4-tetrahydronaphthalen-2-yl]piperidin-3-ylamine] reads < 1000 nM.

Regarding `Fc1ccc(O[C@H]2c3ccccc3CC[C@@H]2N2CCOCC2)c(-c2ccno2)c1` (racemic) [Example 507, 4-[rac-trans-(1,2)-1-(4-fluoro-2-isoxazol-5-ylphenoxy)-1,2,3,4-tetrahydronaphthalen-2-yl]morpholine], the inhibition at 10 µM lay in the range of 20 to 50%. For the compound `CS(=O)(=O)c1ccc(O[C@@H]2c3cc(F)cc(Cl)c3C[C@H]2N2CCC[C@@H](N)C2)cc1` (racemic) [Example 91, (R)-1-[rac-trans-(1,2)-4-chloro-6-fluoro-1-(4-methanesulfonylphenoxy)indan-2-yl]piperidin-3-ylamine], the IC50 was < 1000 nM. The same measure, in the same setting: the result for `CN(c1ccc(O[C@H]2c3cc(Cl)cc(Cl)c3C[C@@H]2N2CC[C@@H](O)C2)cc1)S(C)(=O)=O` [Example 698, N-{4-[(1S,2S)-4,6-dichloro-2-((R)-3-hydroxypyrrolidin-1-yl)indan-1-yloxy]phenyl}-N-methylmethanesulfonamide] reads < 1000 nM. On the same count and under the same terms, the result for `CC(=O)Nc1cccc(O[C@H]2c3cc(F)ccc3C[C@@H]2N2CCCC2)c1` (racemic) [Example 661, N-[3-(rac-trans-(1,2)-6-fluoro-2-pyrrolidin-1-ylindan-1-yloxy)phenyl]acetamide] reads < 1000 nM.

Take `CS(=O)(=O)c1ccc(O[C@@H]2c3ccccc3C[C@@H]2n2ccnc2)cc1` (racemic) [Example 261, 1-[rac-cis-(1,2)-1-(4-methanesulfonylphenoxy)indan-2-yl]-1H-imidazole]: the inhibition at 10 µM is 20 to 50%. For the compound `CCc1nnc(C(C)C)n1-c1ccc(O[C@H]2c3cc(Cl)cc(Cl)c3C[C@@H]2N2CC[C@@H](O)C2)cc1` [Example 716, (R)-1-{trans-(1S,2S)-4,6-Dichloro-1-[4-(3-ethyl-5-isopropyl-[1,2,4]triazol-4-yl)-phenoxy]-indan-2-yl}-pyrrolidin-3-ol], the IC50 is < 1000 nM. For `CN(C)Cc1ccc(O[C@H]2c3ccccc3CC[C@@H]2N2CCC[C@H](N)C2)cc1` (racemic) [Example 177, (S)-1-[rac-trans-(1,2)-1-(4-dimethylaminomethylphenoxy)-1,2,3,4-tetrahydronaphthalen-2-yl]piperidin-3-ylamine], the inhibition at 10 µM was 20 to 50%. Regarding `Cc1nnc(C)n1-c1ccc(O[C@H]2c3cc(Cl)cc(Cl)c3C[C@@H]2N2CCCC2)cc1` [Example 500, 4-[4-(trans-(1S,2S)-4,6-dichloro-2-pyrrolidin-1-ylindan-1-yloxy)phenyl]-3,5-dimethyl-4H-[1,2,4]triazole], the IC50 was < 1000 nM.
